Key:
SK-N-AS cells [1] = test: alamarBlue viability, SK-N-AS; type: cell-based, human; details: 24 h
Experimental: (§1) CellTiter 96® Aqueous One Solution Cell Proliferation assay (Promega, Madison, WI, USA) was used to examine proliferation, and alamarBlue® assay (Thermo Fisher Scientific, Inc.) was used to evaluate viability. Cells, concentrations ranging from 5 × 10^3 to 1.5 × 10^4, depending on cell type due to wide variation in growth characteristics between established cell lines and PDX cells, were plated in 96-well plates and treated with increasing doses of 792 or 1154 for 24 h. CellTiter 96® or alamarBlue® dye (10 µL) was added for proliferation and viability assays, respectively. A microplate reader (Epoch Microplate Spectrophotometer, BioTek Instruments, Winooski, VT) measured absorbance at 490 nm for CellTiter 96® and at 570 nm for alamarBlue®, using 600 nm as a reference. […] Experiments were completed with at least three biologic replicates, and data reported as fold change ± SEM.
(§2) Supplemental Figure S3: Novel PP2A activating compounds decrease d neuroblastoma proliferation and viability. SK-N-AS and SK-N-BE(2) cells (1.5 x 104) were plated in 96-well plates and treated with increasing doses of nine PP2A activating compounds for 24 […]
(§3) novel PP2A activators tested in (A) SK-N-AS and (B) SK-N-BE(2) cells. Similarly, PP2A […]
(§4) (D) SK-N-BE(2) cells. Data reported as mean fold change ± SEM, and experiments were repeated with at least three biologic replicates. […]

PP2A = molecular target: T1, PP2A (Homo sapiens, UniProt P30153+P67775); test: PP2A immunoprecipitation phosphatase assay in SH-EP cells; type: cell-based; details: 24 h, 10 μM in text (15 μM in Figure 2 legend), control 100 ± 0%
T1 construct: host or cells: SH-EP

SET = test: Immunoblotting of SET in neuroblastoma cells; type: cell-based, human; details: increasing concentrations, 24 h; four cell lines and two PDXs
Experimental: (§5) Following treatment, cells were lysed on ice using radioimmunoprecipitation (RIPA) buffer with phosphatase inhibitors (P5726, Sigma Aldrich), protease inhibitors (P8340, Sigma Aldrich), and phenylmethanesulfonylfluoride (PMSF, P7626, Sigma Aldrich) for 60 min. Cell lysates were centrifuged at 17,000 rpm for 30 min at 4 °C. Pierce™ BCA Protein Assay (Thermo Fisher Scientific, Inc.) determined protein concentration and proteins were separated by electrophoresis on sodium dodecyl sulfate polyacrylamide (SDS-PAGE) gels. Expected size of the targeted proteins was confirmed using molecular weight markers (Precision Plus Protein Kaleidoscope, Bio-Rad, Hercules, CA, USA). […] Immunoblots were developed with Luminata Classico or Crescendo Western horseradish peroxidase substrate (EMD Millipore, Burlington, MA, USA). Either anti-vinculin or anti-β-actin (as available from manufacturer) served as an internal loading control. We performed densitometry of Western blots using ImageJ software (Ver 1.49, http://imagej.nih.gov/ij (accessed on 9 February 2022).

SK-N-AS cells [2] = test: CellTiter 96 proliferation, SK-N-AS; type: cell-based; details: Homo sapiens, 24 h
Experimental: as §1, §2, §3, §4

CIP2A = test: Immunoblotting of CIP2A in neuroblastoma cells; type: cell-based, human; details: increasing concentrations, 24 h; all cell lines except WAC2 and COA129 treated with 792
Experimental: as §5

SK-N-AS flank tumors = test: SK-N-AS flank tumor growth in athymic nude mice; type: in vivo, mouse; details: 50 mg/kg bid po; for Percent necrosis in SK-N-AS tumors: H&E, blinded pathologist, vehicle 8.3 ± 3.3%; for tumor volume: SK-N-AS flank tumors, after 9 days, vehicle 2104 ± 53
Experimental: SK-N-AS (1.8 × 10^6) or SK-N-BE(2) (1.5 × 10^6) cells in 25% Matrigel™ (BD Biosciences) were injected into the right flank of 6-week-old female athymic nude mice (Fredricks, Charles River, Wilmington, MA, USA) (n = 5 for SK-N-AS vehicle treated, n = 7 for SK-N-AS 792 or 1154 treatment and all SK-N-BE(2) experimental groups). Calipers were used to measure tumors three times per week, and volumes were calculated by the formula (width^2 × length)/2, where width was the smaller measurement. After tumors reached a volume of 100 mm^3, animals were randomized to three groups to receive 100 µL of either vehicle (N,N-dimethylacetamide (DMA, 271012, Sigma Aldrich) and Kolliphor® HS 15 (Solutol, 42996, Sigma Aldrich)), 792 (50 mg/kg in DMA and Solutol), or 1154 (50 mg/kg in DMA and Solutol) twice daily by oral gavage; dosing based on previously published in vivo cancer models. Animals were weighed weekly and were humanely euthanized in their home cages with CO2 and cervical dislocation when control tumors reached 2000 mm^3; either 9 (SK-N-AS tumors) or 19 days (SK-N-BE(2) tumors) following treatment initiation, or when IACUC parameters were met. Power analysis was completed prior to the study.

SH-EP cells = test: Annexin V/PI apoptosis flow cytometry, SH-EP; type: cell-based, human; details: 10 µM, 24 h
Experimental: Apoptosis was evaluated using the FITC Annexin V Apoptosis Detection Kit (BD Biosciences) according to manufacturer’s protocol. SH-EP cells (5 × 10^5) were treated with either 792 or 1154 (10 µM) for 24 h. Cells were trypsinized, washed with PBS, centrifuged, and re-suspended in 100 μL of 1× binding buffer (0.1 M HEPES/NaOH, 1.4 M NaCl, 25 mM CaCl2, pH 7.4). Annexin V-FITC staining solutions were added, and cells were incubated for 15 min at room temperature (20–25 °C) in the dark. Cells were washed in 1 mL of 1× binding buffer, centrifuged, and re-suspended in 500 μL of 1× binding buffer. PI was added, and cells sat on ice for 1 h prior to flow cytometry. Unstained cells and cells stained with either PI or Annexin V alone were utilized for negative controls and compensation. The percent of Annexin V and/or PI positive cells was determined via flow cytometry using the Attune NxT Flow Cytometer (Invitrogen). Data are represented as percent cell population with Annexin V + PI− stained cells representing early apoptotic cells, Annexin V + PI + cells representing late apoptotic cells, cells not stained with Annexin V or PI representing live cells, and cells stained with PI only representing necrotic or dead cells. FlowJo software (FlowJo, LLC) was used for data analysis. Data reported as mean ± SEM.
Supplemental Figure S6: 792 and 1154 treatment and apoptosis. Cells were serum starved and treated with 792 or 1154 to evaluate the cell cycle as previously described (Figure 4).
(A) The percent of cells in the subG1 (<G1) is reported in tabular form. There was no sig-nificant increase in the subG1 population in any of the cell lines except for SH-EP cells […]
subG1 population, further investigation of apoptosis was performed. Cells were treated with 792 or 1154 (0, 10 µM) for 24 hours and were assessed by flow cytometry of Annexin V/PI dual staining, and FlowJo was used for analysis. […]
significant increase (B) in early apoptosis (Annexin V + PI - cells, quadrant Q3) (C) whereas […]
mechanism behind the effect of these drugs on viability. […]

T1 sequence (P67775 whole entry): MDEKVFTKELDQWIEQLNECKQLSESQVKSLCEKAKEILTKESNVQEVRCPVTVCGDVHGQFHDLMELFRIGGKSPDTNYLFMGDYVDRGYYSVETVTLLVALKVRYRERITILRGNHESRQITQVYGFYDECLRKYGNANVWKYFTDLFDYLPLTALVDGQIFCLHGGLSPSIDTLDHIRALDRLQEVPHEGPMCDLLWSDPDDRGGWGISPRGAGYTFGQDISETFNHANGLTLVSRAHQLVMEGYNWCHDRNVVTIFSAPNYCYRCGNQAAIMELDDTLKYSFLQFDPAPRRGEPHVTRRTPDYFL
T1 sequence (P30153 2-589 limits assumed): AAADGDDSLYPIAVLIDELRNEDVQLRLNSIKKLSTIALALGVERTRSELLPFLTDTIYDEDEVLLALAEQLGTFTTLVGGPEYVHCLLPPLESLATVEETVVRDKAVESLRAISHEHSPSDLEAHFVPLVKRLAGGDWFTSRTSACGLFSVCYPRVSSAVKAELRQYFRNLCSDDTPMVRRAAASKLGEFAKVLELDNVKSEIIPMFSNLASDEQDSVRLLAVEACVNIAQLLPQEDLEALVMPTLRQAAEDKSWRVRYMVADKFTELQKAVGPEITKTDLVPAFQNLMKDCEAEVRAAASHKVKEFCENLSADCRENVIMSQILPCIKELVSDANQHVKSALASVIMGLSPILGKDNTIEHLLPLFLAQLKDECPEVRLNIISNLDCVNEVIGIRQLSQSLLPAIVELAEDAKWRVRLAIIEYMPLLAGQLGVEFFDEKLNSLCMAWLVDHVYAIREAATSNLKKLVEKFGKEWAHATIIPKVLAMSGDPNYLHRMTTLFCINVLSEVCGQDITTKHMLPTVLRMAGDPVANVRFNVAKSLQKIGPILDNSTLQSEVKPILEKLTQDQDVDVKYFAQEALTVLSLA

Row | SMILES | LD50 (SK-N-AS cells [1]) [µM] | PP2A activation (percent PP2A activity) (PP2A) [%] | SET expression (SET) | IC50 (SK-N-AS cells [2]) [µM] | expression of CIP2A (CIP2A) | Percent necrosis in SK-N-AS tumors (SK-N-AS flank tumors) [%] | tumor volume (SK-N-AS flank tumors) [mm^3] | late apoptosis (Annexin V/PI) (SH-EP cells) | ganglion cells in tumors (tumor cell differentiation) (SK-N-AS flank tumors; SK-N-AS tumors, H&E staining) | early apoptosis (Annexin V/PI) (SH-EP cells)
1 | O=S(=O)(NC1CCCC(N2c3ccccc3CCc3ccccc32)C1O)c1ccc(OC(F)(F)F)cc1 (stereo not drawn) [DBK-1154] | 13.9 | 138.0 ± 16.5 | unchanged | 22.4 | decreased | 23.3 ± 6.7 | 2124 ± 275 | increased cells in late apoptosis |  | 
2 | O=S(=O)(N[C@H]1COC[C@@H](n2c3ccc(Cl)cc3c3cc(Cl)ccc32)[C@@H]1O)c1ccc(OC(F)(F)F)cc1 [ATUX-792] | 12.2 | 117.3 ± 7.2 | unchanged | 23.9 | decreased | 33.3 ± 8.8 | 1309 ± 169 | increased cells in late apoptosis | ganglion cells present | significant increase in early apoptosis
